{
  "source": "patent US8846627B2",
  "about": "“Method for treatment of malaria” (The Second Military Medical University, priority 2009, dated 2014)",
  "tested_on": "Plasmodium berghei (chloroquine sensitive strain)",
  "assay": "In vivo anti-malarial activity, 4-day suppressive test in infected mice",
  "conditions": "Swiss albino mice; for Day 4 % Suppression / Day 5 % Suppression / Day 6 % Suppression: intragastric",
  "experimental": "Tests were performed in a 4-day suppressive standard test using the methods of David, Thurston and Peters (David, A. F., Philip, J. R., Simon, L. C., Reto B., and Solomon N. Antimalarial drug discovery: Efficacy models for compound screening. Nature Reviews. 2004; 3: 509-520). The plasmodium species, that is most widely employed in rodent malaria parasite-Plasmodium berghei (chloroquine sensitive strain), was used to infect Swiss albino mice for a fourday suppressive test. The P. berghei was subsequently maintained in the laboratory by serial blood passage from mouse to mouse. For the study, a donor mouse with a rising parasitemia of 20% was sacrificed and its blood was collected in a slightly heparinized syringe from the auxiliary vessels. The blood was diluted with Trisodium Citrate (TC) medium so that each 0.2 ml contained approximately 107 infected red cells. Each animal received inoculums of about […], which is expected to produce a steadily rising infection in mice.\nMale Swiss albino mice were used. The mice were allowed to acclimatize to the laboratory environment under a controlled temperature of 20° C. and at optimum humidity for at least three days before being subjected to the experiments. All of the mice were divided into groups of six, and infected with malaria parasites.\nThe infection of the recipient mice was initiated by needle passage of the above mentioned parasite preparation, from the donor to healthy test animals via an intraperitoneal route. Therefore, P. berghei infected red blood cells were intraperitoneally injected into the mice from the blood diluted with TC medium so that each 0.2 ml had approximately 106-107 infected red cells (parasite per kg of body weight). Each mouse was infected with single inoculums of 0.2 ml blood.\nThe 4-day procedures were started on Mondays while blood smears for parasitemia were collected on Fridays. The infected mice were weighed, randomly divided into treatment, vehicle and standard drug groups. […] The compounds were administered through intra gastric route using the stomach tube to ensure the safe ingestion of the compounds and the vehicle.\nThin smears of blood films were obtained from the peripheral blood on the tail from each mouse on day four after infection. The smears were placed on microscopic slides, fixed with methanol and stained with Gemsa at pH 7.2, for parasitemia. […] The number of parasitized erythrocytes in each of the 10-50 such fields were counted three times and the average was calculated to give the Parasitemia of each individual animal. Percentage of suppression was calculated by using the following formula. % Suppression=(Parasitemia in negative control−Parasitemia in study group)/Parasitemia in negative control",
  "data": [
    {"smiles": "O=C(/C=C/c1ccc(O)cc1)OC[C@H]1O[C@@H](Oc2c(-c3ccc(O)cc3)oc3cc(O)cc(O)c3c2=O)[C@H](O)[C@@H](O)[C@@H]1O", "note": "[Tiliroside]", "values": [
      {"measurement": "Day 4 % Suppression", "setting": "10 mg/kg daily for 4 days", "result": 39.1, "unit": "%"},
      {"measurement": "Day 5 % Suppression", "setting": "10 mg/kg daily for 4 days", "result": 51.5, "unit": "%"},
      {"measurement": "Day 6 % Suppression", "setting": "10 mg/kg daily for 4 days", "result": 35.1, "unit": "%"},
      {"measurement": "Day 4 % Suppression", "setting": "50 mg/kg daily for 4 days", "result": 56.5, "unit": "%"},
      {"measurement": "Day 5 % Suppression", "setting": "50 mg/kg daily for 4 days", "result": 64.0, "unit": "%"},
      {"measurement": "Day 6 % Suppression", "setting": "50 mg/kg daily for 4 days", "result": 54.0, "unit": "%"},
      {"measurement": "Day 4 % Suppression", "setting": "100 mg/kg daily for 4 days", "result": 34.7, "unit": "%"},
      {"measurement": "Day 5 % Suppression", "setting": "100 mg/kg daily for 4 days", "result": 39.3, "unit": "%"},
      {"measurement": "Day 6 % Suppression", "setting": "100 mg/kg daily for 4 days", "result": 21.6, "unit": "%"},
      {"measurement": "Day 4 % Suppression", "setting": "200 mg/kg daily for 4 days", "result": 21.7, "unit": "%"},
      {"measurement": "Day 5 % Suppression", "setting": "200 mg/kg daily for 4 days", "result": 30.3, "unit": "%"},
      {"measurement": "Day 6 % Suppression", "setting": "200 mg/kg daily for 4 days", "result": 18.9, "unit": "%"},
      {"measurement": "Day 5 % Suppression", "setting": "400 mg/kg daily for 4 days", "result": 9.0, "unit": "%"},
      {"measurement": "maximum suppression ratio", "setting": "maximum over doses and days", "result": 60, "unit": "%"}
    ]}
  ]
}
